# Measurements as given in ChEMBL document CHEMBL1201862, “PubChem BioAssay data set” (2004).
# Calls of active or inactive are those of the source.
# Legend:
# [1] = test system: Jurkat; experiment: blockers of NF-kB activation in T cells – Jurkat, luciferase reporter, luminescence, B- and T-cell, dose response (AID 489004); type: functional, cell-based; details: Homo sapiens;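 further: NF-kB luciferase reporter Jurkat cells stimulated with PMA plus ionomycin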
# [2] = molecular target: T1, Caspase-3 (Homo sapiens, UniProt P42574); type: functional;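 further: Dose-response selectivity test against caspase-3 for candidate inhibitors of sentrin-specific proteases (SENPs)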
# T1 sequence (P42574 whole entry): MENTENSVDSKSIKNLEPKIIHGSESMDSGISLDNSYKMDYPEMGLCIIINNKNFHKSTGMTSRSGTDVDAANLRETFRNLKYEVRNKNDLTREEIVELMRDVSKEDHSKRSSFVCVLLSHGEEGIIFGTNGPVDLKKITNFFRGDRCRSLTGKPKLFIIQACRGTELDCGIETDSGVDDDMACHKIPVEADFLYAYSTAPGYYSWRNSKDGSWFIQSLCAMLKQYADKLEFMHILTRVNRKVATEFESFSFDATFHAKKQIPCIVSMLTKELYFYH
# [3] = HEK-293T viability loss, compound-treated – cell-based, uHTS hits, cytotoxicity control for B/T-cell NF-kB inhibitor project, dose response (AID 489019); type: functional;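 further: IC50 reflects cytotoxicity as loss of cell viability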
# [4] = molecular target: Cytochrome P450 2C9 (Homo sapiens, UniProt P11712)
# [5] = molecular target: T2, Tyrosine-protein phosphatase non-receptor type 7 (Homo sapiens, UniProt P35236); type: functional
# T2 sequence (P35236 whole entry): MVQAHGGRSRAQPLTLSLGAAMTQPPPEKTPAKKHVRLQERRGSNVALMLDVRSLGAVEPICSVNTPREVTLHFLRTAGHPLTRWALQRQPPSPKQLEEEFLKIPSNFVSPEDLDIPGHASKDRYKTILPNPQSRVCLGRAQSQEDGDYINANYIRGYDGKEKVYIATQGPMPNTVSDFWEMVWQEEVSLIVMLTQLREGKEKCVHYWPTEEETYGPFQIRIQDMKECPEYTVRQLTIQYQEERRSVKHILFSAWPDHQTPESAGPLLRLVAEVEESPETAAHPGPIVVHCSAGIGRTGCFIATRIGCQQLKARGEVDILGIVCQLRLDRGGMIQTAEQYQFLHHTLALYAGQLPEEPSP
# [6] = molecular target: Dual specificity protein phosphatase 3 (Homo sapiens, UniProt P51452); experiment: VHR1 phosphatase inhibitors, biochemical (AID 1878)
# [7] = NIH3T3 cell viability loss – ATP luminescence, mouse fibroblasts, counter-screen, dose response (AID 2010); type: functional, cell-based;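 further: cells exposed to compound for about 90 hours before reading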
# [8] = molecular target: T3, Dual specificity protein phosphatase 6 (Rattus norvegicus, UniProt Q64346); experiment: inhibition of rat DUSP6 enzyme activity – biochemical, in vitro, primary screen (AID 425)
# T3 sequence (Q64346 whole entry): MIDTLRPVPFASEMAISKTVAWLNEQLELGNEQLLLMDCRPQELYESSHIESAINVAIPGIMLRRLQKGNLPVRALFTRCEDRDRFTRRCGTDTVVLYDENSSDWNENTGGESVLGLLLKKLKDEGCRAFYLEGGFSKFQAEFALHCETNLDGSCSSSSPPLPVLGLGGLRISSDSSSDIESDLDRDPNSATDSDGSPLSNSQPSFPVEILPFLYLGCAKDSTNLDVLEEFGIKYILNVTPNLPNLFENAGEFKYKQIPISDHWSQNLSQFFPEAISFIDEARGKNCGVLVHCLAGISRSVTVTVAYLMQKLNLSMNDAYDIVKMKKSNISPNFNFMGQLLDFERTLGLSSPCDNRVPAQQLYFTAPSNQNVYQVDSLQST
# [9] = molecular target: T4, Protein RecA (Mycobacterium tuberculosis, UniProt P9WHJ3); experiment: Fluorescence Cell-Free Homogeneous Dose Retest to Identify Inhibitors of RecA-Intein Splicing Activity. [Related pubchem assays (depositor defined):AID2097, AID2223, AID489010, AID492950]; type: functional
# T4 sequence (P9WHJ3 whole entry): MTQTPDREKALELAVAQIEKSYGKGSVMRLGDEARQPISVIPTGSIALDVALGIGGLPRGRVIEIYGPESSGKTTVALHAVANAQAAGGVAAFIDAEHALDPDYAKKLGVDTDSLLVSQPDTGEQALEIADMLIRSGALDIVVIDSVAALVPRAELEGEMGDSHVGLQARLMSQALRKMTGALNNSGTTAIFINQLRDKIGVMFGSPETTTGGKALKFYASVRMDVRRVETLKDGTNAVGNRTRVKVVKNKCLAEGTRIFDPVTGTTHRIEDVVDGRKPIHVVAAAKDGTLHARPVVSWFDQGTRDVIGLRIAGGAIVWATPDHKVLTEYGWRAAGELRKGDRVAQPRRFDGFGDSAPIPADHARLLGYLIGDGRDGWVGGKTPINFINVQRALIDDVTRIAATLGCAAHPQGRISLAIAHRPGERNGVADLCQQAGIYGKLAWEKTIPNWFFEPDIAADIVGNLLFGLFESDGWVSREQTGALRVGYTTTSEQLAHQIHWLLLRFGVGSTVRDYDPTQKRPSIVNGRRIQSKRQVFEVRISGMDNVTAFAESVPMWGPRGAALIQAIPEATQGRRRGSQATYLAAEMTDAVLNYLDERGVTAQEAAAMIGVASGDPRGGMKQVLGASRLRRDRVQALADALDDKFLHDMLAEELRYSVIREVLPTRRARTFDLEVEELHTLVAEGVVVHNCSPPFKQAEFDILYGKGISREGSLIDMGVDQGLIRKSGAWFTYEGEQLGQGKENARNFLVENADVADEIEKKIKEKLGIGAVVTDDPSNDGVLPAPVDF
# [10] = molecular target: Dual specificity tyrosine-phosphorylation-regulated kinase 1A (Rattus norvegicus, UniProt Q63470); type: biochemical, Homo sapiens
# [11] = reduction of Shn3 3'UTR-driven luciferase in osteoblasts – cell-based, Clone20 osteoblasts, firefly luciferase, cherry-picked, dose response (AID 624132); type: functional;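 further: firefly luciferase luminescence from reporter carrying the Shn3 3'UTR in osteoblasts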
# [12] = molecular target: Serine/threonine-protein kinase PLK4 (Homo sapiens, UniProt O00444); type: functional;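 further: PLK4 measured as one member of a kinome-wide kinase profiling panel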
# [13] = molecular target: Mast/stem cell growth factor receptor Kit (Homo sapiens, UniProt P10721); type: functional;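 further: KIT entry within a kinase panel assay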
# [14] = molecular target: Insulin-like growth factor 1 receptor (Homo sapiens, UniProt P08069); experiment: Navigating the Kinome. Panel member name: IGF1R; type: functional
# [15] = molecular target: Aurora kinase B (Homo sapiens, UniProt Q96GD4); type: functional
# [16] = molecular target: Tyrosine-protein kinase Fer (Homo sapiens, UniProt P16591); type: functional;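 further: FER tested as one member of a kinome panel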
# [17] = molecular target: Tyrosine-protein kinase Fyn (Homo sapiens, UniProt P06241); type: functional
# [18] = molecular target: Fibroblast growth factor receptor 3 (Homo sapiens, UniProt P22607); type: functional
# Sequence of Fibroblast growth factor receptor 3 (P22607 whole entry): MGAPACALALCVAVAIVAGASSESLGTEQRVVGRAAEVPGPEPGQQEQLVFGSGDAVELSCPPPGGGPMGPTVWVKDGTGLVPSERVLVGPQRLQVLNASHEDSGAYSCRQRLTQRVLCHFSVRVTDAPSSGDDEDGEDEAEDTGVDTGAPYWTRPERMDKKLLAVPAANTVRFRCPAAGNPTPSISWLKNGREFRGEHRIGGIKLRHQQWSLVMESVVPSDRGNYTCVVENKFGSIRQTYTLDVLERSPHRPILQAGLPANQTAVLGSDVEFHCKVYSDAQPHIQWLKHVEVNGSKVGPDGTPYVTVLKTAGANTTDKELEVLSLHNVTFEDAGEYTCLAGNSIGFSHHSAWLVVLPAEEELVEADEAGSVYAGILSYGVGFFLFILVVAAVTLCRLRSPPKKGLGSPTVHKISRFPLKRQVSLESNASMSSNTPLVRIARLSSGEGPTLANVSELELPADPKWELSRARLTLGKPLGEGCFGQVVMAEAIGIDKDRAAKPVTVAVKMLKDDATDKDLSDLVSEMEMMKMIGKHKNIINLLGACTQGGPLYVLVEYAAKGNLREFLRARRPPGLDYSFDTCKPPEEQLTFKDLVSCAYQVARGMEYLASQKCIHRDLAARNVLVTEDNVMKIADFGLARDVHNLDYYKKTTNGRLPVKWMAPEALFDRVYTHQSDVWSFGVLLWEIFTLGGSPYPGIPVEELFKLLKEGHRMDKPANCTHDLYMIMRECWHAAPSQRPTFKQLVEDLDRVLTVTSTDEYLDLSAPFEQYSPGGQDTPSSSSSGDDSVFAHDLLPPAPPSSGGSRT
# Sequence of Serine/threonine-protein kinase PLK4 (O00444 whole entry): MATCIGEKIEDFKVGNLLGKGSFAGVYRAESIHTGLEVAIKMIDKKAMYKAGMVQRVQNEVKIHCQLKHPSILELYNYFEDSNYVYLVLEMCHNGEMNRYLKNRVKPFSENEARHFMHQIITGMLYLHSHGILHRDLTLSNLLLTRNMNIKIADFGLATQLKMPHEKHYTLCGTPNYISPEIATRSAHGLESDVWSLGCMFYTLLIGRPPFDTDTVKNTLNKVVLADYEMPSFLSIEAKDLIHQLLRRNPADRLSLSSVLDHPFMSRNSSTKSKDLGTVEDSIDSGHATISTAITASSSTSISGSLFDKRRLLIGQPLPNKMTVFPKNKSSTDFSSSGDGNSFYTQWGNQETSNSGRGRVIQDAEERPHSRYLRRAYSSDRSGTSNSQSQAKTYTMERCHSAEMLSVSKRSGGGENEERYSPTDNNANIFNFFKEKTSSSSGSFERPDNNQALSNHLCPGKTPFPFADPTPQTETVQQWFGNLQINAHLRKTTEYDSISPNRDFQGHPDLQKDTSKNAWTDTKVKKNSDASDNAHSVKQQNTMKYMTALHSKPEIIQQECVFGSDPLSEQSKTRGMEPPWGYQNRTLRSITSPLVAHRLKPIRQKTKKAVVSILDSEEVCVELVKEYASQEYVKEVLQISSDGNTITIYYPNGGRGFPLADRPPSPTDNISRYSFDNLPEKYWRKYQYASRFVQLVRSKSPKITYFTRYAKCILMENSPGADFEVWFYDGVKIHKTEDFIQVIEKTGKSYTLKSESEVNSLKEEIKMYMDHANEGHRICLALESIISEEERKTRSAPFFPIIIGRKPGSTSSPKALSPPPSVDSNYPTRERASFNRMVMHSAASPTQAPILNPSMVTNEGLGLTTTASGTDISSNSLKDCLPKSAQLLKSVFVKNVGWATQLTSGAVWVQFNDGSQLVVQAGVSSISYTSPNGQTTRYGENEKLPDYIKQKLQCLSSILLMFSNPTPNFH
# Sequence of Dual specificity protein phosphatase 3 (P51452 whole entry): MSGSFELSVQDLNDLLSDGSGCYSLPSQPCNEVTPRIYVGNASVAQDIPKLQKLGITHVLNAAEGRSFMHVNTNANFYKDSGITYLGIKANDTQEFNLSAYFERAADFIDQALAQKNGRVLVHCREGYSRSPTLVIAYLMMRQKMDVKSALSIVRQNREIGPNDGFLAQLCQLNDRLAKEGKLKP
# Sequence of Cytochrome P450 2C9 (P11712 whole entry): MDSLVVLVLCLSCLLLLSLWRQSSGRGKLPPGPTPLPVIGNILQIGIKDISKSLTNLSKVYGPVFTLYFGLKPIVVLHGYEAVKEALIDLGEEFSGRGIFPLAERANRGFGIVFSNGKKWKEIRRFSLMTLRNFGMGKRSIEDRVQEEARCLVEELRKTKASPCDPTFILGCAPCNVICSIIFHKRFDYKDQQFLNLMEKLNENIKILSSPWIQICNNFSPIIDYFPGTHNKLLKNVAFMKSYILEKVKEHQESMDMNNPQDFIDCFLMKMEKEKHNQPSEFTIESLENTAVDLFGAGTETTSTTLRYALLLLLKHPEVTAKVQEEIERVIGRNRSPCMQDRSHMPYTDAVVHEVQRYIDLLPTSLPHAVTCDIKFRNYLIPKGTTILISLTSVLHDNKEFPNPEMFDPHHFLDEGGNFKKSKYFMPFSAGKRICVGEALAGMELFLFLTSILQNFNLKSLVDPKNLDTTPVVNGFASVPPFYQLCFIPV
# Sequence of Mast/stem cell growth factor receptor Kit (P10721 whole entry): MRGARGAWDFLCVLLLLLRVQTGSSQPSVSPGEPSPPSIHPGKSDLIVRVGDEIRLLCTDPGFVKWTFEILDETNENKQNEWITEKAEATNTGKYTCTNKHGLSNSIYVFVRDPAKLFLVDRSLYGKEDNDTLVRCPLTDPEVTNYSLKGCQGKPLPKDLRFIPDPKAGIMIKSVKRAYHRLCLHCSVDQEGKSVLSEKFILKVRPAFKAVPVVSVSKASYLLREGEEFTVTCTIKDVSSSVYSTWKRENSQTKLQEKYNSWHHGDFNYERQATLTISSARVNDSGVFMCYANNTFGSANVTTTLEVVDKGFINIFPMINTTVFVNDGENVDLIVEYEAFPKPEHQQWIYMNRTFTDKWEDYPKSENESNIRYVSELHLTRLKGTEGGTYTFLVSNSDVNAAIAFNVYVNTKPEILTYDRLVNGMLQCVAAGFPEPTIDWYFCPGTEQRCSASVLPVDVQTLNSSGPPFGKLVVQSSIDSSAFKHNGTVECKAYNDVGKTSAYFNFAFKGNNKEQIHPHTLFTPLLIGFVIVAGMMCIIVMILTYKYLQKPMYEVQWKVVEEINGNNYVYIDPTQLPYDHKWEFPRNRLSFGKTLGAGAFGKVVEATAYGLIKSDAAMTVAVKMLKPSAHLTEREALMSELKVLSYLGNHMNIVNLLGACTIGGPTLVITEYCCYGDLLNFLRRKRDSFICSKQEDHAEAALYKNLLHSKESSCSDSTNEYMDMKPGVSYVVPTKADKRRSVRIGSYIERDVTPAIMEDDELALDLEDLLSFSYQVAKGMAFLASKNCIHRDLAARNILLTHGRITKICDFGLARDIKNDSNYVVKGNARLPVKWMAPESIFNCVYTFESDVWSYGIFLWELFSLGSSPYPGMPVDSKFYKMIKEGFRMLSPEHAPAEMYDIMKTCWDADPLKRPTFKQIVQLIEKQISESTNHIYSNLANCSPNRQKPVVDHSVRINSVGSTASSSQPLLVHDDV
# Sequence of Aurora kinase B (Q96GD4 whole entry): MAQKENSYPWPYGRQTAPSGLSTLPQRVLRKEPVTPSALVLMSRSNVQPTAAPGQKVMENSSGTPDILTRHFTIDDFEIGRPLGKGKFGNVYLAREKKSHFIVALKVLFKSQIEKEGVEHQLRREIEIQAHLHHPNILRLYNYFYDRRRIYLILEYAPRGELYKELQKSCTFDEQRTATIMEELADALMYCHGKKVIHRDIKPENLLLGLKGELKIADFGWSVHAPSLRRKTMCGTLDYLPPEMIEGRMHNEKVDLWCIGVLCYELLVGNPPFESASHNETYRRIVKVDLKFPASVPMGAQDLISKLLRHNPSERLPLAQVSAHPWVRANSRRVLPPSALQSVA
# Sequence of Tyrosine-protein kinase Fer (P16591 whole entry): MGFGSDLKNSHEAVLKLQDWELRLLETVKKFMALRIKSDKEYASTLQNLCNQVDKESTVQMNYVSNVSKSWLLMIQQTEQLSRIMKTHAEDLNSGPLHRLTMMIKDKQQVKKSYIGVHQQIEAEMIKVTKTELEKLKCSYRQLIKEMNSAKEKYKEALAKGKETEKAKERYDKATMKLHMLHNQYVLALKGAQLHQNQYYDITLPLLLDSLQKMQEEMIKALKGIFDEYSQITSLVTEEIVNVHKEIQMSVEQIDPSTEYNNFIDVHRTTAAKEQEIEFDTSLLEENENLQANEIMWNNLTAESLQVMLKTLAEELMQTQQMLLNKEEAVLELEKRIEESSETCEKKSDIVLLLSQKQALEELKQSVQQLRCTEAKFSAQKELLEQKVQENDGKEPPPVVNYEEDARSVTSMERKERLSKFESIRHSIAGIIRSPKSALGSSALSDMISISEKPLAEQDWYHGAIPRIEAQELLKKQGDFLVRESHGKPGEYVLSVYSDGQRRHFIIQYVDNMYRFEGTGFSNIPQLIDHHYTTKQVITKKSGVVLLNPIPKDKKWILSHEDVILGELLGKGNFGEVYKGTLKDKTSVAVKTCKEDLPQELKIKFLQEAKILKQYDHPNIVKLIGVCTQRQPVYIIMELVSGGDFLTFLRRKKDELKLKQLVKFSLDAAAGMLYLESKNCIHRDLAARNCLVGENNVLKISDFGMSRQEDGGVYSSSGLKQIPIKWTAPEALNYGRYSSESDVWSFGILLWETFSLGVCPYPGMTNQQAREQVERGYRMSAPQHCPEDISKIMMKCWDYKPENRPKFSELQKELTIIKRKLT
smiles,measurement,setting,value
CC(C)c1ccc(-c2nnn(CCC(=O)O)n2)cc1,IC50,[1],< 160 nM (active)
same,IC50,[2],48600 nM (active)
same,IC50,[3],> 80000 nM (inactive)
same,AC50,[4],31600 nM (inconclusive)
CCn1nc(/C=C/c2ccccc2)nc2c(=O)n(C)c(=O)nc1-2,IC50,[5],10300 nM (active)
same,IC50,[6],106000 nM (inactive)
same,EC50,[7],1020 nM (active)
same,IC50,[8],< 1230 nM (not active)
same,EC50,[9],36.8 nM (active)
same,AC50,[10],281 nM (active)
same,AC50,[11],2570 nM (active)
COc1cc2c(cc1Nc1nc(Nc3cccc(F)c3C(N)=O)c3cc[nH]c3n1)N(C(=O)CN(C)C)CC2,Ki,[12],2000 nM (active)
same,Ki,[13],> 1260 nM (inactive)
same,Ki,[14],2 nM (active)
same,Ki,[15],> 3980 nM (inactive)
same,Ki,[16],1.58 nM (active)
same,Ki,[17],> 6310 nM (inactive)
same,Ki,[18],> 2000 nM (inactive)
